Test results from BigSolDB 2.1.

O=C(CCc1ccc(O)cc1)c1c(O)cc(O)cc1O
solubility (mole fraction)
Details | 288.2 K | 298.2 K | 308.2 K | 318.2 K | 328.2 K
in 1,4-dioxane | 0.0211 | 0.0249 | 0.029 | 0.0331 | 0.0384
in ethanol | 0.0345 | 0.0373 | 0.0399 | 0.0421 | 0.0447
in ethyl acetate | 0.0266 | 0.0283 | 0.0309 | 0.0343 | 0.037
in isopropanol | 0.0351 | 0.0374 | 0.039 | 0.0411 | 0.0429
in methanol | 0.0245 | 0.0259 | 0.0275 | 0.0299 | 0.0317
in n-butanol | 0.0336 | 0.035 | 0.0362 | 0.0378 | 0.0394
in n-butyl acetate | 0.0258 | 0.0281 | 0.0305 | 0.0323 | 0.0346
in n-hexanol | 0.0289 | 0.0313 | 0.0332 | 0.0347 | 0.0366
in n-pentanol | 0.0301 | 0.0324 | 0.034 | 0.0357 | 0.0378
in n-propanol | 0.03 | 0.0318 | 0.0336 | 0.0358 | 0.0382
in sec-butanol | 0.0101 | 0.014 | 0.0175 | 0.0217 | 0.0244
in water | 3.46e-06 | 5.76e-06 | 1.12e-05 | 1.7e-05 | 2.7e-05
